According to the NIST ThermoML archive (doi:10.1016/j.fluid.2010.08.022):
± gives the expanded uncertainty stated by the source.

Conditions: 101.33 kPa, Liquid crystal of unknown type; for mass density: Vibrating tube method; for speed of sound: Sing-around technique in a fixed-path interferometer

CCCCCCCC/C=C\CCCCCCCC(=O)O.NCCO [2-hydroxyethylammonium oleate]
Conditions | mass density [kg/m3] | speed of sound [m/s]
294.41 K | 938.892 ± 1.7 | –
294.66 K | 938.731 ± 1.7 | 1522 ± 3.7
294.91 K | 938.572 ± 1.7 | 1521.1 ± 3.7
295.16 K | 938.414 ± 1.7 | 1520.2 ± 3.7
295.41 K | 938.256 ± 1.7 | 1519.4 ± 3.7
295.66 K | 938.095 ± 1.7 | 1518.5 ± 3.7
295.91 K | 937.936 ± 1.7 | 1517.6 ± 3.7
296.16 K | 937.777 ± 1.7 | 1516.8 ± 3.7
296.41 K | 937.618 ± 1.7 | 1515.9 ± 3.7
296.66 K | 937.459 ± 1.7 | 1515 ± 3.7
296.91 K | 937.301 ± 1.7 | 1514.2 ± 3.7
297.16 K | 937.14 ± 1.7 | 1513.3 ± 3.7
297.41 K | 936.981 ± 1.7 | 1512.5 ± 3.7
297.66 K | 936.822 ± 1.7 | 1511.6 ± 3.7
297.91 K | 936.662 ± 1.7 | 1510.8 ± 3.7
298.15 K | 936.505 ± 1.7 | 1509.9 ± 3.7
298.41 K | 936.345 ± 1.7 | 1509 ± 3.7
298.66 K | 936.186 ± 1.7 | 1508.2 ± 3.7
298.91 K | 936.026 ± 1.7 | 1507.3 ± 3.7
299.15 K | 935.868 ± 1.7 | 1506.5 ± 3.7
299.41 K | 935.709 ± 1.7 | 1505.6 ± 3.7
299.66 K | 935.55 ± 1.7 | 1504.8 ± 3.7
299.91 K | 935.39 ± 1.7 | 1503.9 ± 3.7
300.16 K | 935.231 ± 1.7 | 1503 ± 3.7
300.41 K | 935.072 ± 1.7 | 1502.2 ± 3.7
300.66 K | 934.914 ± 1.7 | 1501.3 ± 3.7
300.9 K | 934.755 ± 1.7 | 1500.5 ± 3.7
301.16 K | 934.596 ± 1.7 | 1499.7 ± 3.7
301.41 K | 934.436 ± 1.7 | 1498.8 ± 3.7
301.66 K | 934.277 ± 1.7 | 1498 ± 3.7
301.91 K | 934.118 ± 1.7 | 1497.1 ± 3.7
302.16 K | 933.959 ± 1.7 | 1496.3 ± 3.7
302.41 K | 933.802 ± 1.7 | 1495.5 ± 3.7
302.66 K | 933.642 ± 1.7 | 1494.6 ± 3.7
302.91 K | 933.483 ± 1.7 | 1493.8 ± 3.7
303.16 K | 933.324 ± 1.7 | 1492.9 ± 3.7
303.4 K | 933.167 ± 1.7 | 1492.1 ± 3.7
303.66 K | 933.005 ± 1.7 | 1491.3 ± 3.7
303.91 K | 932.846 ± 1.7 | 1490.4 ± 3.7
304.16 K | 932.688 ± 1.7 | 1489.6 ± 3.7
304.41 K | 932.529 ± 1.7 | 1488.8 ± 3.7
304.66 K | 932.371 ± 1.7 | 1488 ± 3.7
304.91 K | 932.212 ± 1.7 | 1487.1 ± 3.7
305.16 K | 932.053 ± 1.7 | 1486.3 ± 3.7
305.41 K | 931.892 ± 1.7 | 1485.5 ± 3.7
305.66 K | 931.734 ± 1.7 | 1484.7 ± 3.7
305.9 K | 931.576 ± 1.7 | 1483.8 ± 3.7
306.16 K | 931.416 ± 1.7 | 1483 ± 3.7
306.4 K | 931.258 ± 1.7 | 1482.2 ± 3.7
306.66 K | 931.098 ± 1.7 | 1481.4 ± 3.7
306.91 K | 930.939 ± 1.7 | 1480.5 ± 3.7
307.16 K | 930.781 ± 1.7 | 1479.7 ± 3.7
307.41 K | 930.622 ± 1.7 | 1478.9 ± 3.7
307.66 K | 930.464 ± 1.7 | 1478.1 ± 3.7
307.91 K | 930.304 ± 1.7 | 1477.3 ± 3.7
308.16 K | 930.145 ± 1.7 | 1476.4 ± 3.7
308.41 K | 929.987 ± 1.7 | 1475.6 ± 3.7
308.65 K | 929.828 ± 1.7 | 1474.8 ± 3.7
308.91 K | 929.668 ± 1.7 | 1474 ± 3.7
309.16 K | 929.509 ± 1.7 | 1473.2 ± 3.7
309.4 K | 929.35 ± 1.7 | 1472.3 ± 3.7
309.66 K | 929.189 ± 1.7 | 1471.5 ± 3.7
309.91 K | 929.032 ± 1.7 | 1470.7 ± 3.7
310.16 K | 928.874 ± 1.7 | 1469.9 ± 3.7
310.41 K | 928.713 ± 1.7 | 1469 ± 3.7
310.66 K | 928.554 ± 1.7 | 1468.2 ± 3.7
310.91 K | – | 1467.4 ± 3.7
